pIC50: −log10 of the molar value.
Tests used:
Type in all cases: biochemical
EGFR = molecular target: T1, EGFR (Homo sapiens, UniProt P00533); test: Kinase inhibition assay (33P transfer), EGFR; conditions: Table 2, kinase inhibition class; read-out: EGFR-1
T1 construct: Kinases are expressed as either kinase domains or full length constructs; made in house
Method in brief: (§1)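 Using immobilised substrate copolymers (poly(Glu,Tyr) 4:1; poly(Arg,Ser) 3:1) and [33P]ATP, purified fusion kinases were allowed to react; plates were then rinsed in 0.5% phosphoric acid and counted in a scintillation detector. Half-maximal inhibition of label transfer defines IC50.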

FGFR1 = molecular target: T2, FGFR1 (Homo sapiens, UniProt P11362); test: Kinase inhibition assay (33P transfer), FGFR1; conditions: read-out: FGFR1-1
T2 construct: Kinases are expressed as either kinase domains or full length constructs; made in house

Zap-70 = molecular target: T3, Zap-70 (Homo sapiens, UniProt P43403); test: Kinase inhibition assay (33P transfer), Zap-70; conditions: read-out: Zap-1
T3 construct: Kinases are expressed as either kinase domains or full length constructs; made in house
T3 sequence (P43403 1-619): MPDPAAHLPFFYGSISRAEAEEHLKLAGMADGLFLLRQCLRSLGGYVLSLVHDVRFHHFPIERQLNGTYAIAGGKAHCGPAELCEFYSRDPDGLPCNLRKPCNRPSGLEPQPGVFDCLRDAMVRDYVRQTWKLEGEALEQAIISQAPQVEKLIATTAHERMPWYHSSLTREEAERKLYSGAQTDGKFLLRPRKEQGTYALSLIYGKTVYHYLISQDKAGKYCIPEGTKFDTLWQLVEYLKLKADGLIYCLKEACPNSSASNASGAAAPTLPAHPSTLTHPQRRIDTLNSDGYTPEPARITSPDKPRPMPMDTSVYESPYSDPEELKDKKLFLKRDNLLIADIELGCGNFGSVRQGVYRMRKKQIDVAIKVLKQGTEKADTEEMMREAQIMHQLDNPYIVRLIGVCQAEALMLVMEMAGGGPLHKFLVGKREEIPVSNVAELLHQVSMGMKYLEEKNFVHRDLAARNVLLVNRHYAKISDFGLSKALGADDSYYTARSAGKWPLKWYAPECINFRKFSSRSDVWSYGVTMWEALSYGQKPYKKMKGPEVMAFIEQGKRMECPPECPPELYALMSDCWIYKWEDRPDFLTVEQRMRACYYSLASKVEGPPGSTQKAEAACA
Method in brief: (§2)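 Liquid scintillation counting of 33P on plate-bound synthetic substrates gives kinase activity. Plates are washed in 0.5% phosphoric acid first; kinases are tagged recombinant proteins from E. coli or baculovirus-infected High Five cells.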

Flt-1 = molecular target: T4, Flt-1 (Homo sapiens, UniProt P17948); test: Kinase inhibition assay (33P transfer), Flt-1
T4 construct: Kinases are expressed as either kinase domains or full length constructs; made in house
Method in brief: as §1

Ret-1 = molecular target: T5, Ret-1 (Homo sapiens, UniProt P07949); test: Kinase inhibition assay (33P transfer), Ret; conditions: Table 6, Ret-1 kinase inhibition class
T5 construct: Kinases are expressed as either kinase domains or full length constructs; made in house

Lyn = molecular target: T6, Lyn (Homo sapiens, UniProt P07948); test: Kinase inhibition assay (33P transfer), Lyn; conditions: Table 6, Lyn-1 kinase inhibition class
T6 construct: Kinases are expressed as either kinase domains or full length constructs; made in house
Method in brief: as §1

Src = molecular target: T7, Src (Homo sapiens, UniProt P12931); test: Kinase inhibition assay (33P transfer), Src; conditions: Table 6, Src-1 kinase inhibition class
T7 construct: Kinases are expressed as either kinase domains or full length constructs; made in house
Method in brief: as §1

Fyn = molecular target: T8, Fyn (Homo sapiens, UniProt P06241); test: Kinase inhibition assay (33P transfer), Fyn; conditions: read-out: Fyn-1
T8 construct: Kinases are expressed as either kinase domains or full length constructs; made in house
Method in brief: as §1

Kdr = molecular target: T9, Kdr (Homo sapiens, UniProt P35968); test: Kinase inhibition assay (33P transfer), Kdr; conditions: read-out: KDR-1
T9 construct: Kinases are expressed as either kinase domains or full length constructs; made in house
Method in brief: as §2

IGFR-1 = molecular target: T10, IGFR-1 (Homo sapiens, UniProt P08069); test: Kinase inhibition assay, IGFR-1 (Table 2); conditions: Table 2, kinase inhibition class
T10 construct: Kinases are expressed as either kinase domains or full length constructs; made in house

c-Met = molecular target: T11, c-Met (Homo sapiens, UniProt P08581); test: Kinase inhibition assay (33P transfer), c-Met; conditions: Table 2, kinase inhibition class; read-out: Met-1
T11 construct: Kinases are expressed as either kinase domains or full length constructs; made in house
Method in brief: as §1

ErbB2 = molecular target: T12, ErbB2 (Homo sapiens, UniProt P04626); test: Kinase inhibition assay (33P transfer), ErbB2; conditions: read-out: ErbB2-2
T12 construct: Kinases are expressed as either kinase domains or full length constructs; made in house
Method in brief: as §1

PDGFRB = molecular target: T13, PDGFRB (Homo sapiens, UniProt P09619); test: Kinase inhibition assay (33P transfer), PDGFRB; conditions: read-out: PDGFRB-1
T13 construct: Kinases are expressed as either kinase domains or full length constructs; made in house

Hck-1 = molecular target: T14, Hck-1 (Homo sapiens, UniProt P08631); test: Kinase inhibition assay (33P transfer), Hck; conditions: Table 6, Hck-1 kinase inhibition class
T14 construct: Kinases are expressed as either kinase domains or full length constructs; made in house

AKT = molecular target: T15, AKT (Homo sapiens, UniProt Q9Y243); test: Kinase inhibition assay (33P transfer), AKT; conditions: Table 2, kinase inhibition class; read-out: AKT3-1
T15 construct: Kinases are expressed as either kinase domains or full length constructs; made in house
Method in brief: as §2

Lck = molecular target: T16, Lck (Homo sapiens, UniProt P06239); test: Kinase inhibition assay (33P transfer), Lck; conditions: read-out: Lck-1
T16 construct: Kinases are expressed as either kinase domains or full length constructs; made in house
Method in brief: as §2

ErbB4 = molecular target: T17, ErbB4 (Homo sapiens, UniProt Q15303); test: Kinase inhibition assay (33P transfer), ErbB4; conditions: read-out: ErbB4-1
T17 construct: Kinases are expressed as either kinase domains or full length constructs; made in house

Tek = molecular target: T18, Tek (Homo sapiens, UniProt Q02763); test: Kinase inhibition assay (33P transfer), Tek; conditions: read-out: Tek-1
T18 construct: Kinases are expressed as either kinase domains or full length constructs; made in house
Method in brief: as §1

Itk = molecular target: T19, Itk (Homo sapiens, UniProt Q08881); test: Kinase inhibition assay (33P transfer), Itk; conditions: read-out: Itk-1
T19 construct: Kinases are expressed as either kinase domains or full length constructs; made in house
T19 sequence (Q08881 1-620): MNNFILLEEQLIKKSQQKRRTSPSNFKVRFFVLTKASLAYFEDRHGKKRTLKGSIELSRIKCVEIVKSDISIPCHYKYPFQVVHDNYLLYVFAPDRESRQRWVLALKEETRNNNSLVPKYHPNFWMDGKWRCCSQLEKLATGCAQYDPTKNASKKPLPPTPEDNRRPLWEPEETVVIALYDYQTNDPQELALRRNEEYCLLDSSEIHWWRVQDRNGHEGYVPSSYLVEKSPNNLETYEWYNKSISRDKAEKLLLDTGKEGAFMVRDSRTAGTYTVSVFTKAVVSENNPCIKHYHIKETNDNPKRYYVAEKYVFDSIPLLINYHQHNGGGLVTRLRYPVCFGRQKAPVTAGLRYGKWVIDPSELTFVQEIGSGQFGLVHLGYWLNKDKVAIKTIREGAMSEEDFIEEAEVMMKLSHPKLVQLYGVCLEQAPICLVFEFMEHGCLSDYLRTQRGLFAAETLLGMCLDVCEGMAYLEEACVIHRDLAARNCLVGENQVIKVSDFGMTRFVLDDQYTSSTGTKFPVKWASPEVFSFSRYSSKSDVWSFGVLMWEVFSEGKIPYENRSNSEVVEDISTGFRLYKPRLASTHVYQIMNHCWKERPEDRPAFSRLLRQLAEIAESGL
Method in brief: as §1

T15 sequence (Q9Y243 whole entry, the tested form may be a part): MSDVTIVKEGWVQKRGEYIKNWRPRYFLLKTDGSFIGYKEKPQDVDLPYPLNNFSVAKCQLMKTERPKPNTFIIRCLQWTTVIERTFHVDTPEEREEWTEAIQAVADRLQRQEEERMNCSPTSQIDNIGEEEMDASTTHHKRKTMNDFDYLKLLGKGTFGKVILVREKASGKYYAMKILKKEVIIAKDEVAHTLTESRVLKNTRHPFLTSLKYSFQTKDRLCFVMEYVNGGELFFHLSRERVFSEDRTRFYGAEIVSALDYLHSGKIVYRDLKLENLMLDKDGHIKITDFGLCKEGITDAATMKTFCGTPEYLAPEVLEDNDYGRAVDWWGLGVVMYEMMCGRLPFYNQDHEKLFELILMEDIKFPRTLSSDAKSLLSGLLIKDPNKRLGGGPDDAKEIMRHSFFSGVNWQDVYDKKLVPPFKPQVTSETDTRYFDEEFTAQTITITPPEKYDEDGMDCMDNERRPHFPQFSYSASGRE
T1 sequence (P00533 25-1210, species assumed): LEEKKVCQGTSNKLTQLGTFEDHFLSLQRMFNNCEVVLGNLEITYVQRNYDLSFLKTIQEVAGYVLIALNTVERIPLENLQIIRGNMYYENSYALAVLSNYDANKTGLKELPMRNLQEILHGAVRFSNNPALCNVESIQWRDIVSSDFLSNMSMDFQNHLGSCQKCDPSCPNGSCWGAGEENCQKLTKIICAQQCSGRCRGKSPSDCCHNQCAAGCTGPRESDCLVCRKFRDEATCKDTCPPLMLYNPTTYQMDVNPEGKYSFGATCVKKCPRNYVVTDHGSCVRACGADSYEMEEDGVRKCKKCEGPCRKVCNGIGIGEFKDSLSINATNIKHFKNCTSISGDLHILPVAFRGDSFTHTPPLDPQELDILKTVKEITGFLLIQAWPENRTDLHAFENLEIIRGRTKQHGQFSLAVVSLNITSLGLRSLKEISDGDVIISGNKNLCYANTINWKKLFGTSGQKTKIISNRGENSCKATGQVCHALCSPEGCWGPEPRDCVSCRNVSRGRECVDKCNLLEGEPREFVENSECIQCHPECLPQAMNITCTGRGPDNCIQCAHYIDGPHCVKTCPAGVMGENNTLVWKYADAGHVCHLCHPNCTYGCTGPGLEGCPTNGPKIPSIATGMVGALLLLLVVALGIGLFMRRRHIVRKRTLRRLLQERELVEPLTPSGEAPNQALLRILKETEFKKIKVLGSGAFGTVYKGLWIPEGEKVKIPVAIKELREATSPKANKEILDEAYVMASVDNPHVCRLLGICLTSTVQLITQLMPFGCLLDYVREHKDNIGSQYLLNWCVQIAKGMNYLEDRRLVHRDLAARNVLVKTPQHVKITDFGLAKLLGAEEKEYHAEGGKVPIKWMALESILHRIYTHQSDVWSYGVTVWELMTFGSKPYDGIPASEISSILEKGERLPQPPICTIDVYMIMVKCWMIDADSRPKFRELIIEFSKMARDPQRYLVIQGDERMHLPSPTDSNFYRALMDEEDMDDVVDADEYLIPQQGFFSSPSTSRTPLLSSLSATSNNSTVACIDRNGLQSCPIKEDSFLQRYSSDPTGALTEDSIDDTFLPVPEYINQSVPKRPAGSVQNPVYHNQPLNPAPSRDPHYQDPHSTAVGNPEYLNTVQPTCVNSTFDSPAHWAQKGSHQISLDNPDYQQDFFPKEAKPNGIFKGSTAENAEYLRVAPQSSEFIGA
T5 sequence (P07949 29-1114): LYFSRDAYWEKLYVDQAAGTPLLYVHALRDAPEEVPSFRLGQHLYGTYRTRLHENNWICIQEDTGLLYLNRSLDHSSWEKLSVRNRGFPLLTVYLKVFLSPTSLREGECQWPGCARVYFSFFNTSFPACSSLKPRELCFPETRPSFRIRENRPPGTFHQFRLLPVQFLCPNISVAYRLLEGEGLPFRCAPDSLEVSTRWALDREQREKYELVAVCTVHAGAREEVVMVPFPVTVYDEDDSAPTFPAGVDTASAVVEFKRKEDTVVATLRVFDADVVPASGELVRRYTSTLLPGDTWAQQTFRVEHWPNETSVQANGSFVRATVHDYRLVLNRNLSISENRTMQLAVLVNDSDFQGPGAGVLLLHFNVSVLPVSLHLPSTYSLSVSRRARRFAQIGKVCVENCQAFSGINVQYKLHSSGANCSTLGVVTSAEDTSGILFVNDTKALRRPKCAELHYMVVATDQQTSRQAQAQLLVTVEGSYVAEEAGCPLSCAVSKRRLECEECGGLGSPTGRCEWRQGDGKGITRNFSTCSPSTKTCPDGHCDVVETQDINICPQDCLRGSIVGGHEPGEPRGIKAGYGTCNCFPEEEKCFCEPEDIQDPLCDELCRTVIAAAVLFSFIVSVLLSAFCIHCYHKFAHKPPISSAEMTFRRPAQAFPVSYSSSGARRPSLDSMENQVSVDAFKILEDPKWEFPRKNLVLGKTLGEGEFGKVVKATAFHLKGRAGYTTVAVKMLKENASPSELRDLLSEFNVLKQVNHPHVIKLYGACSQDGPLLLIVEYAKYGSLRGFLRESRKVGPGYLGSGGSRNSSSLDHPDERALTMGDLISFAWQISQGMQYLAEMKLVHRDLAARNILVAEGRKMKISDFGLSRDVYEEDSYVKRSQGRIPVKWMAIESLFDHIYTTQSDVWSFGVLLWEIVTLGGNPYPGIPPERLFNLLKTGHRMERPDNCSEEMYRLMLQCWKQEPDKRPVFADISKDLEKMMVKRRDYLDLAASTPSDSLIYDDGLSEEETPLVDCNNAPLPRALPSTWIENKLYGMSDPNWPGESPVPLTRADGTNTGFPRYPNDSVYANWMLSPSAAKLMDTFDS
T13 sequence (P09619 33-1106, species assumed): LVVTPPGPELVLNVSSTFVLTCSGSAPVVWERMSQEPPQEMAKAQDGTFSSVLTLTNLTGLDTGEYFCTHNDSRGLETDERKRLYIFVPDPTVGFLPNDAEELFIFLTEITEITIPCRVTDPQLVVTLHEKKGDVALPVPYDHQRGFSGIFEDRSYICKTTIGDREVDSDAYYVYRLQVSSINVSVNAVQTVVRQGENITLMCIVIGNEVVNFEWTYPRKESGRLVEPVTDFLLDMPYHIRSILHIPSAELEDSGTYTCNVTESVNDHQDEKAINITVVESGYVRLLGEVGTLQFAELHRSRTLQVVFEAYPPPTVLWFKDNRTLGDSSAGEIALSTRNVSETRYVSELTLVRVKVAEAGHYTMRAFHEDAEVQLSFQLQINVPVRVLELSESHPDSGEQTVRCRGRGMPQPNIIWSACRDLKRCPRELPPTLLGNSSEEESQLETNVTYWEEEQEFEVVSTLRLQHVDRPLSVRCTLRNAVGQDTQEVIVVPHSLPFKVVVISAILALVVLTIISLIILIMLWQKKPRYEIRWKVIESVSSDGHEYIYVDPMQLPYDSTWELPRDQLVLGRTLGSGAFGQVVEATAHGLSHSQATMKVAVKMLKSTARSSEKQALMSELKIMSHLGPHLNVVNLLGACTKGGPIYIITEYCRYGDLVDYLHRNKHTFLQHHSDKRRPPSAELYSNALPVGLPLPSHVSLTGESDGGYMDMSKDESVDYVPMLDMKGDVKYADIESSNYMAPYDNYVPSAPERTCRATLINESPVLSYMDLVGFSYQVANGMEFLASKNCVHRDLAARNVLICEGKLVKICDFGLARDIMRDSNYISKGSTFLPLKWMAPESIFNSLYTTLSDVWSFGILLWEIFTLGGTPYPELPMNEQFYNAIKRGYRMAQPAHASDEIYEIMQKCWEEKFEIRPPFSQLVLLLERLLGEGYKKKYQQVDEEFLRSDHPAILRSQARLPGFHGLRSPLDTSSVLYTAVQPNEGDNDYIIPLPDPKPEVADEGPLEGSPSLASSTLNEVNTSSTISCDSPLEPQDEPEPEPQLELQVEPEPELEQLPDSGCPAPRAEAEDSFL
T7 sequence (P12931 whole entry, species assumed, the tested form may be a part): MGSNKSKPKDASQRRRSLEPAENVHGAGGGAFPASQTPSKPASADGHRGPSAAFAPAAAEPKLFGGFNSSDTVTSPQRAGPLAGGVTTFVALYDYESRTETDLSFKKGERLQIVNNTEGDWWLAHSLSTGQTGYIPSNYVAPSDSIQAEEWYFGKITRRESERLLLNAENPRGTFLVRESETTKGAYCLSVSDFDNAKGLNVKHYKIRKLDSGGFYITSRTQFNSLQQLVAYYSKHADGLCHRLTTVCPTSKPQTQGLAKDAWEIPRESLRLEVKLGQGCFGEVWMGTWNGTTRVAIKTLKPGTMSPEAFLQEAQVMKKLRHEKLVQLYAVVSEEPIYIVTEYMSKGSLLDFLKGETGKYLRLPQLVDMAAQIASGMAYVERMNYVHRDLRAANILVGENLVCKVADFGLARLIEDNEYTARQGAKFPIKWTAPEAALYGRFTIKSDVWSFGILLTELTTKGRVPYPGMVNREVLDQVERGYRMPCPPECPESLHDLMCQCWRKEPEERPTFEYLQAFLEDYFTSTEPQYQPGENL
T6 sequence (P07948 whole entry, species assumed, the tested form may be a part): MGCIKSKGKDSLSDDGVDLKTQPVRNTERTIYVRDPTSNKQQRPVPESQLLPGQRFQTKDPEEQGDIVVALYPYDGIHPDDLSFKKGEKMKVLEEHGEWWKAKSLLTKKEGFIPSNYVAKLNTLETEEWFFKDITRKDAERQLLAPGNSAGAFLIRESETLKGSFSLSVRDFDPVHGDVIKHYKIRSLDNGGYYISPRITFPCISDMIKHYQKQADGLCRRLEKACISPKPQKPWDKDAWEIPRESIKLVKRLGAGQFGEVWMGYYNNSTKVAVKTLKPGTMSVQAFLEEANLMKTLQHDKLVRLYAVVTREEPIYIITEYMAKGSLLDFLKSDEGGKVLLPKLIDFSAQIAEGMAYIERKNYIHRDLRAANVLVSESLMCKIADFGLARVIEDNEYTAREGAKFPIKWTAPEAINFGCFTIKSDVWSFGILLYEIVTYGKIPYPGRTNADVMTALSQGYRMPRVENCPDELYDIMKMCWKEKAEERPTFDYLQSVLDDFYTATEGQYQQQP

COc1cc(Nc2ncnc(-c3cccnc3NC(C)C)n2)cc(OC)c1OC [Compound 1089]
pIC50 (EGFR): < 4.94 | pIC50 (FGFR1): < 4.94 | pIC50 (Zap-70): < 4.94 | pIC50 (Flt-1): < 4.94 | pIC50 (Ret-1): > 6.00 | pIC50 (Lyn): > 6.00 | pIC50 (Src): 5.22 to 6.00 | pIC50 (Fyn): 5.22 to 6.00 | pIC50 (Kdr): > 6.00 | pIC50 (IGFR-1): < 4.94 | pIC50 (c-Met): < 4.94 | pIC50 (ErbB2): < 4.94 | pIC50 (PDGFRB): > 6.00 | pIC50 (Hck-1): < 4.94 | pIC50 (AKT): < 4.94 | pIC50 (Lck): > 6.00 | pIC50 (ErbB4): < 4.94 | pIC50 (Tek): < 4.94 | pIC50 (Itk): 5.05 to 5.22

COc1cc(Nc2ncnc(-c3c(O)[nH]c4ccc(Cl)cc34)n2)cc(OC)c1OC [Compound 517]
pIC50 (EGFR): 5.09 to 5.25 | pIC50 (FGFR1): 5.25 to 6.03 | pIC50 (Zap-70): < 4.98 | pIC50 (Flt-1): > 6.03 | pIC50 (Ret-1): 5.09 to 5.25 | pIC50 (Lyn): 4.98 to 5.09 | pIC50 (Src): < 4.98 | pIC50 (Fyn): 5.09 to 5.25 | pIC50 (Kdr): > 6.03 | pIC50 (IGFR-1): 5.25 to 6.03 | pIC50 (c-Met): 4.98 to 5.09 | pIC50 (ErbB2): 5.09 to 5.25 | pIC50 (PDGFRB): 5.25 to 6.03 | pIC50 (Hck-1): < 4.98 | pIC50 (AKT): < 4.98 | pIC50 (Lck): 5.25 to 6.03 | pIC50 (ErbB4): < 4.98 | pIC50 (Tek): 5.09 to 5.25 | pIC50 (Itk): 4.98 to 5.09

COc1cc(Nc2ncnc(-n3c(NCc4ccccn4)nc4ccccc43)n2)cc(OC)c1OCCN1CCOCC1 [Compound 519]
pIC50 (EGFR): < 5.11 | pIC50 (FGFR1): > 6.16 | pIC50 (Zap-70): < 5.11 | pIC50 (Flt-1): 5.39 to 6.16 | pIC50 (Ret-1): > 6.16 | pIC50 (Lyn): 5.11 to 5.22 | pIC50 (Src): < 5.11 | pIC50 (Fyn): < 5.11 | pIC50 (Kdr): > 6.16 | pIC50 (IGFR-1): 5.39 to 6.16 | pIC50 (c-Met): < 5.11 | pIC50 (ErbB2): < 5.11 | pIC50 (PDGFRB): > 6.16 | pIC50 (Hck-1): < 5.11 | pIC50 (AKT): < 5.11 | pIC50 (Lck): 5.39 to 6.16 | pIC50 (ErbB4): < 5.11 | pIC50 (Tek): < 5.11 | pIC50 (Itk): < 5.11

COc1cc(Nc2ncnc(-n3c(NCc4ccc(C)cc4)nc4ccccc43)n2)cc(OC)c1OC [Compound 516]
pIC50 (EGFR): < 5.04 | pIC50 (FGFR1): > 6.09 | pIC50 (Zap-70): < 5.04 | pIC50 (Flt-1): 5.15 to 5.32 | pIC50 (Ret-1): > 6.09 | pIC50 (Lyn): < 5.04 | pIC50 (Src): < 5.04 | pIC50 (Fyn): < 5.04 | pIC50 (Kdr): > 6.09 | pIC50 (IGFR-1): < 5.04 | pIC50 (c-Met): < 5.04 | pIC50 (ErbB2): < 5.04 | pIC50 (PDGFRB): 5.04 to 5.15 | pIC50 (Hck-1): < 5.04 | pIC50 (AKT): < 5.04 | pIC50 (Lck): 5.15 to 5.32 | pIC50 (ErbB4): < 5.04 | pIC50 (Tek): < 5.04 | pIC50 (Itk): < 5.04

COc1cc(Nc2ncnc(Nc3ccc(Cl)c4ccccc34)n2)cc(OC)c1OC [Compound 1031]
pIC50 (EGFR): > 6.04 | pIC50 (FGFR1): 5.26 to 6.04 | pIC50 (Zap-70): < 4.99 | pIC50 (Flt-1): < 4.99 | pIC50 (Ret-1): 5.26 to 6.04 | pIC50 (Lyn): 5.26 to 6.04 | pIC50 (Src): 5.10 to 5.26 | pIC50 (Fyn): < 4.99 | pIC50 (Kdr): 5.10 to 5.26 | pIC50 (IGFR-1): 5.26 to 6.04 | pIC50 (c-Met): < 4.99 | pIC50 (ErbB2): 5.26 to 6.04 | pIC50 (PDGFRB): > 6.04 | pIC50 (Hck-1): < 4.99 | pIC50 (AKT): < 4.99 | pIC50 (Lck): 5.26 to 6.04 | pIC50 (ErbB4): < 4.99 | pIC50 (Tek): < 4.99 | pIC50 (Itk): < 4.99
